pIC50: −log10 of the molar value. Where two headings read alike, the source gives them in different places. Some results are limits rather than exact numbers.

What is called pIC50 is −log10 of the IC50, conventionally taken in molar units.

In this assay the test system is Aβ42. The experiment in a line: Cellular assay for inhibition of Aβ1-42 production (H4 APP751 SWE clone 8.20). The assay is classed as cell-based. As to conditions: H4 APP751 SWE clone 8.20 cells, 19 h incubation. The protocol: Cellular Assays for Inhibition of Aβ1-40 and Aβ1-42 Production
H4 cells stably transfected with APP751 containing the Swedish mutation (H4 APP751 SWE clone 8.20, developed at BMS) were maintained in log phase through twice weekly passage at a 1:20 split. […] Following incubation for 19 h in 5% CO2 at 37° C., plates were briefly centrifuged (1000 rpm, 5 min). A 10 μl aliquot from each well was transferred to a second assay plate (Costar 3709) for Aβ40 measurements. Antibody cocktails were freshly prepared by dilution into 40 mM Tris-HCl (pH 7.4) with 0.2% BSA and added to assay plates. For Aβ42 measurements, antibodies specific for the Aβ42 neoepitope (565, developed at BMS; conjugated to the Wallac reagent (Perkin Elmer)) and the N-terminal sequence of Aβ peptide (26D6, developed at SIBIA; conjugated to APC (Perkin Elmer)) were mixed and 20 μl of the mixture was added to each well of the incubated cell plate yielding a final concentration of 0.8 ng/well 565 and 75 ng/well 26D6. For the Aβ40 measurements, antibodies specific for the Aβ40 neoepitope (TSD, developed at BMS; conjugated to the Wallac reagent (Perkin Elmer)) and 26D6 as described above were mixed and 20 μl of the mixture was added to the 10 μl aliquots which had been removed previously from the cell plate yielding a final concentration of 1.6 ng/well TSD and 17.5 ng/well 26D6. Assay plates containing antibodies were sealed with aluminum foil and incubated overnight at 4° C. Signal was determined using a Viewlux counter (Perkin Elmer) and IC50 values determined using curve fitting in CurveMaster (Excel Fit based).

The mark [1] stands for this setting: 19 h, read-out: Activity Rating (Aβ42 cellular IC50), class symbol.
[2] abbreviates: read-out: Activity Rating (Aβ42 cellular IC50), class symbol.
[3] abbreviates: unit inferred, read-out: Activity Rating (Aβ42 cellular IC50), numeric value.
Setting [4] is: 19 h, unit inferred, read-out: Activity Rating (Aβ42 cellular IC50), numeric value.

Take `Clc1cn(-c2ccc3cc2OCCCCCNc2nc(nc4c2CCC4c2ccccc2)N3)cn1` (stereo not shown) [Example 11B, 7-(4-chloro-1H-imidazol-1-yl)-19-phenyl-3,10,11,12,13,14,15,17,18,19-decahydro-2,16-(azeno)-8,4-(metheno)cyclopenta[f][1,7,9,13]oxatriazacyclooctadecine]: under setting [1], the pIC50 was 7.00 to 8.00.

Take “(11E)-7-(3-methyl-1H-1,2,4-triazol-1-yl)-18-phenyl-10,13,14,16,17,18-hexahydro-15,2-(azeno)-8,4-(metheno)cyclopenta[h][1,6,10,12]oxatriazacycloheptadecine [Example 40A]”: the pIC50 under setting [2] was above 8.00.

For `CN1CC=CCOc2cc(ccc2-n2cnc(Cl)c2)Nc2nc3c(c1n2)CCC3c1ccccc1` (stereo not shown) [Example 3A, (11Z)-7-(4-chloro-1H-imidazol-1-yl)-14-methyl-18-phenyl-10,13,14,16,17,18-hexahydro-15,2-(azeno)-8,4-(metheno)cyclopenta[h][1,6,10,12]oxatriazacycloheptadecine], the pIC50 under setting [2] was above 8.00.

Consider `Cc1ncnn1-c1ccc2cc1OCCCCNc1nc(nc3c1CCC3c1ccccc1)N2` (stereo not shown) [Example 47B, 7-(5-methyl-1H-1,2,4-triazol-1-yl)-18-phenyl-10,11,12,13,14,16,17,18-octahydro-15,2-(azeno)-8,4-(metheno)cyclopenta[h][1,6,10,12]oxatriazacycloheptadecine], for which, under setting [1], the pIC50 is 7.00 to 8.00.

With “(11Z)-7-(4-chloro-1H-imidazol-1-yl)-18-phenyl-10,13,14,16,17,18-hexahydro-15,2-(azeno)-8,4-(metheno)cyclopenta[h][1,6,10,12]oxatriazacycloheptadecine [Example 1A]”, the pIC50 under setting [3] was 8.41.

With `CN1CCNc2nc(nc3c2CCC3c2ccc(F)cc2)Nc2ccc(C#N)c(c2)OCC1` (single isomer, unassigned) [Example 27A, 7-cyano-19-(4-fluorophenyl)-12-methyl-11,12,13,14,15,17,18,19-octahydro-10H-16,2-(azeno)-8,4-(metheno)cyclopenta[i][1,4,7,11,13]oxatetraazacyclooctadecine], the pIC50 under setting [2] was 7.00 to 8.00.

As to `Cc1ncn(-c2ccc3cc2OC/C=C\CN(C)c2nc(nc4c2CCC4c2ccccc2)N3)n1` (stereo not shown) [Example 44A, (11Z)-14-methyl-7-(3-methyl-1H-1,2,4-triazol-1-yl)-18-phenyl-10,13,14,16,17,18-hexahydro-15,2-(azeno)-8,4-(metheno)cyclopenta[h][1,6,10,12]oxatriazacycloheptadecine], the pIC50 under setting [1] was above 8.00.

On to `Cc1ncn(-c2ccc3cc2OCCCCNc2nc(nc4c2CCC4c2ccc(F)cc2F)N3)n1` (stereo not shown) [Example 64A, 18-(2,4-difluorophenyl)-7-(3-methyl-1H-1,2,4-triazol-1-yl)-10,11,12,13,14,16,17,18-octahydro-15,2-(azeno)-8,4-(metheno)cyclopenta[h][1,6,10,12]oxatriazacycloheptadecine], for which the pIC50 under setting [4] was 8.28.

Regarding “(11Z)-7-(3-methyl-1H-1,2,4-triazol-1-yl)-18-phenyl-10,13,14,16,17,18-hexahydro-15,2-(azeno)-8,4-(metheno)cyclopenta[h][1,10,12]oxadiazacycloheptadecine [Example 58A]”, the pIC50 under setting [2] is above 8.00.

In the case of `CN1CCCCOc2cc(ccc2-n2cnc(Cl)c2)Nc2nc3c(c1n2)CCC3c1ccc(F)cc1F` (stereo not shown) [Example 19B, 7-(4-chloro-1H-imidazol-1-yl)-18-(2,4-difluorophenyl)-14-methyl-10,11,12,13,14,16,17,18-octahydro-15,2-(azeno)-8,4-(metheno)cyclopenta[h][1,6,10,12]oxatriazacycloheptadecine], the pIC50 under setting [2] was 7.00 to 8.00.

For the compound `CN1Cc2c3nc(nc2C(c2ccc(F)cc2)C1)Nc1ccc(C#N)c(c1)OCCCCN3` (racemic) [Example 71, 7-cyano-19-(4-fluorophenyl)-17-methyl-11, 12, 13,14,16,17,18,19-octahydro-10H-15,2-(azeno)-8,4-(metheno)pyrido[3,4-h][1,6,10,12]oxatriazacycloheptadecine], the pIC50 under setting [1] is 7.00 to 8.00.

Regarding `CN1CCCCOc2cc(ccc2-n2cnc(Cl)c2)Nc2nc3c(c1n2)CCC3c1ccc(F)cc1F` (stereo not shown) [Example 19A, 7-(4-chloro-1H-imidazol-1-yl)-18-(2,4-difluorophenyl)-14-methyl-10,11,12,13,14,16,17,18-octahydro-15,2-(azeno)-8,4-(metheno)cyclopenta[h][1,6,10,12]oxatriazacycloheptadecine], the pIC50 under setting [1] is above 8.00.

As for `Cc1ncn(-c2ccc3cc2OCCCCN(C)c2nc(nc4c2CCC4c2ccc(F)cc2F)N3)n1` (stereo not shown) [Example 61A, 18-(2,4-difluorophenyl)-14-methyl-7-(3-methyl-1H-1,2,4-triazol-1-yl)-10,11,12,13,14,16,17,18-octahydro-15,2-(azeno)-8,4-(metheno)cyclopenta[h][1,6,10,12]oxatriazacycloheptadecine], the pIC50 under setting [4] was 8.39.

For `Cc1ncn(-c2ccc3cc2OC/C=C\CN(C)c2nc(nc4c2CCC4c2ccccc2)N3)n1` (stereo not shown) [Example 44B, (11Z)-14-methyl-7-(3-methyl-1H-1,2,4-triazol-1-yl)-18-phenyl-10,13,14,16,17,18-hexahydro-15,2-(azeno)-8,4-(metheno)cyclopenta[h][1,6,10,12]oxatriazacycloheptadecine], the pIC50 under setting [4] was 7.52.

In the case of `CN1CCCOc2cc(ccc2C#N)Nc2nc3c(c1n2)CCC3c1ccc(F)cc1F` (stereo not shown) [Example 35B, 7-cyano-17-(2,4-difluorophenyl)-13-methyl-11,12,13,15,16,17-hexahydro-10H-14,2-(azeno)-8,4-(metheno)cyclopenta[g][1,5,9,11]oxatriazacyclohexadecine], the pIC50 under setting [4] was 6.85.

As for `Cc1ncnn1-c1ccc2cc1OCC=CCNc1nc(nc3c1CCC3c1ccccc1)N2` (stereo not shown) [Example 42A, (11Z)-7-(5-methyl-1H-1,2,4-triazol-1-yl)-18-phenyl-10,13,14,16,17,18-hexahydro-15,2-(azeno)-8,4-(metheno)cyclopenta[h][1,6,10,12]oxatriazacycloheptadecine], the pIC50 under setting [3] was 8.18.

As to `Cc1ncn(-c2ccc3cc2OCCN(C)CCNc2nc(nc4c2CCC4c2ccc(F)cc2)N3)n1` (stereo not shown) [Example 56B, 19-(4-fluorophenyl)-12-methyl-7-(3-methyl-1H-1,2,4-triazol-1-yl)-11,12,13,14,15,17,18,19-octahydro-10H-16,2-(azeno)-8,4-(metheno)cyclopenta[i][1,4,7,11,13]oxatetraazacyclooctadecine], under setting [1], the pIC50 was 7.00 to 8.00.

As for `CN1CCCOc2cc(ccc2-n2cnc(Cl)c2)Nc2nc3c(c1n2)CCC3c1ccc(F)cc1F` (stereo not shown) [Example 20A, 7-(4-chloro-1H-imidazol-1-yl)-17-(2,4-difluorophenyl)-13-methyl-11,12,13,15,16,17-hexahydro-10H-14,2-(azeno)-8,4-(metheno)cyclopenta[g][1,5,9,11]oxatriazacyclohexadecine], under setting [1], the negative logarithm of the IC50 (pIC50) is above 8.00.

As to `Clc1cn(-c2ccc3cc2OC/C=C/CCNc2nc(nc4c2CCC4c2ccccc2)N3)cn1` (stereo not shown) [Example 5A, (11E)-7-(4-chloro-1H-imidazol-1-yl)-19-phenyl-3,10,13,14,15,17,18,19-octahydro-2,16-(azeno)-8,4-(metheno)cyclopenta[j][1,7,9,13]oxatriazacyclooctadecine], the pIC50 under setting [2] is above 8.00.
